In patent US20260295053A1, “COMPOUNDS FOR DEGRADATION AND INHIBITION OF KRAS (G12D) PROTEIN” (Shenzhen Ionova Life Science Co., Ltd., priority 2023, published 2026):

Legend:
AsPC-1 cells = assay: AsPC-1 cell proliferation assay (CellTiter Glo); format: cell-based; settings: 6 days
In short: (§1)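 AsPC-1 cells: for degradation, grown to ~90% confluency, treated 24 h with 1:3 compound series ([…] to 1.5 nM), then fixed and immunostained for KRAS G12D and β-actin, read by infrared fluorescence, DC50 fitted. Proliferation: 3,500 cells/well, 6-day treatment, CellTiter Glo luminescence, IC50 fitted.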

KRAS (G12D) = target: T1, KRAS (G12D) (Homo sapiens, UniProt P01116, G12D); assay: KRAS (G12D) cellular degradation assay in AsPC-1 cells; format: cell-based; settings: 24 hours, antibody fluorescence (Odyssey CLX), DC50 half-maximal degradation concentration
T1 construct: in-cell western with KRAS G12D antibody after 24 h
T1 sequence (P01116 1-188 isoform P01116-2 G12D): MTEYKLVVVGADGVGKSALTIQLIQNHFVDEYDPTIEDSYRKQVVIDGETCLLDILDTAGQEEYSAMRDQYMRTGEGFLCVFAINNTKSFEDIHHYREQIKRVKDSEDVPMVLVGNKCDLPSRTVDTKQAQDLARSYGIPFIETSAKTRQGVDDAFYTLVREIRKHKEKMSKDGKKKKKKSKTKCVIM
In short: as §1

## CCn1nccc1-c1ccc([C@H](CO)NC(=O)[C@@H]2C[C@@H](O)CN2C(=O)[C@H](C(C)C)n2cc(-c3ccc(COc4c(-c5c(C)c(F)cc6[nH]ncc56)c(C5CC5)cc5c(N(C)[C@@H]6CCNC6)nc(O[C@H]6C[C@H](OC)C6)nc45)cc3)nn2)c2c1CC2 [Example 204, (2S,4R)-1-((2S)-2-(4-(4-(((6-cyclopropyl-7-(6-fluoro-5-methyl-1H-indazol-4-yl)-2-((1r,3R)-3-methoxycyclobutoxy)-4-(methyl((R)-pyrrolidin-3-yl)amino)quinazolin-8-yl)oxy)methyl)phenyl)-1H-1,2,3-triazol-1-yl)-3-methylbutanoyl)-N—((R)-1-(5-(1-ethyl-1H-pyrazol-5-yl)bicyclo[4.2.0]octa-1(6),2,4-trien-2-yl)-2-hydroxyethyl)-4-hydroxypyrrolidine-2-carboxamide]
AsPC-1 cells; Homo sapiens, ASPC1, 144 h
  IC50: < 10 nM
KRAS (G12D)
  DC50: < 10 nM

## Cc1ncsc1-c1ccc([C@@H](NC(=O)[C@@H]2C[C@@H](O)CN2C(=O)[C@H](C(C)C)n2cc(-c3ccc(COc4c(-c5c(C)c(F)cc6[nH]ncc56)c(C5CC5)cc5c(N6C[C@@H]7C[C@H]6CN7)nc(OC6CCC7(CC6)COC7)nc45)cc3)nn2)[C@H](C)O)cc1 [Example 96, (2S,4R)-1-((2S)-2-(4-(4-(((2-((2-oxaspiro[3.5]nonan-7-yl)oxy)-4-((1S,4S)-2,5-diazabicyclo[2.2.1]heptan-2-yl)-6-cyclopropyl-7-(6-fluoro-5-methyl-1H-indazol-4-yl)quinazolin-8-yl)oxy)methyl)phenyl)-1H-1,2,3-triazol-1-yl)-3-methylbutanoyl)-4-hydroxy-N-((1R,2S)-2-hydroxy-1-(4-(4-methylthiazol-5-yl)phenyl)propyl)pyrrolidine-2-carboxamide]
AsPC-1 cells; Homo sapiens, ASPC1, 144 h
  IC50: < 10 nM
KRAS (G12D)
  DC50: < 10 nM

## CCn1nccc1-c1ccc([C@@H](NC(=O)[C@@H]2C[C@@H](O)CN2C(=O)[C@H](C(C)C)n2cc(-c3ccc(COc4c(-c5c(C)c(F)cc6[nH]ncc56)c(C5CC5)cc5c(N6C[C@@H]7C[C@H]6CN7)nc(OC6CC7(COC7)C6)nc45)cc3)nn2)[C@H](C)O)cc1 [Example 100, (2S,4R)-1-((2S)-2-(4-(4-(((2-((2-oxaspiro[3.3]heptan-6-yl)oxy)-4-((1S,4S)-2,5-diazabicyclo[2.2.1]heptan-2-yl)-6-cyclopropyl-7-(6-fluoro-5-methyl-1H-indazol-4-yl)quinazolin-8-yl)oxy)methyl)phenyl)-1H-1,2,3-triazol-1-yl)-3-methylbutanoyl)-N-((1R,2S)-1-(4-(1-ethyl-1H-pyrazol-5-yl)phenyl)-2-hydroxypropyl)-4-hydroxypyrrolidine-2-carboxamide]
AsPC-1 cells; Homo sapiens, ASPC1, 144 h
  IC50: < 10 nM
KRAS (G12D)
  DC50: < 10 nM

## CO[C@H]1C[C@H](Oc2nc(N(C)[C@H]3CCNC3)c3cc(C4CC4)c(-c4c(C)c(F)cc5[nH]ncc45)c(OCc4ccc(-c5cn([C@H](C(=O)N6C[C@H](O)C[C@H]6C(=O)N[C@@H](CO)c6ccc(-c7scnc7C)cc6)C(C)C)nn5)cc4)c3n2)C1 [Example 166, (2S,4R)-1-((2S)-2-(4-(4-(((6-cyclopropyl-7-(6-fluoro-5-methyl-1H-indazol-4-yl)-2-((1r,3S)-3-methoxycyclobutoxy)-4-(methyl((S)-pyrrolidin-3-yl)amino)quinazolin-8-yl)oxy)methyl)phenyl)-1H-1,2,3-triazol-1-yl)-3-methylbutanoyl)-4-hydroxy-N—((R)-2-hydroxy-1-(4-(4-methylthiazol-5-yl)phenyl)ethyl)pyrrolidine-2-carboxamide]
AsPC-1 cells; Homo sapiens, ASPC1, 144 h
  IC50: < 10 nM
KRAS (G12D)
  DC50: < 10 nM

## CCn1nccc1-c1ccc([C@H](CO)NC(=O)[C@@H]2C[C@@H](O)CN2C(=O)[C@H](C(C)C)n2cc(-c3ccc(COc4c(-c5c(C)c(F)cc6[nH]ncc56)c(C5CC5)cc5c(N6C[C@@H]7C[C@H]6CN7)nc(OC[C@H](C)OC)nc45)cc3)nn2)c2c1CC2 [Example 152, (2S,4R)-1-((2S)-2-(4-(4-(((4-((1S,4S)-2,5-diazabicyclo[2.2.1]heptan-2-yl)-6-cyclopropyl-7-(6-fluoro-5-methyl-1H-indazol-4-yl)-2-((S)-2-methoxypropoxy)quinazolin-8-yl)oxy)methyl)phenyl)-1H-1,2,3-triazol-1-yl)-3-methylbutanoyl)-N—((R)-1-(5-(1-ethyl-1H-pyrazol-5-yl)bicyclo[4.2.0]octa-1(6),2,4-trien-2-yl)-2-hydroxyethyl)-4-hydroxypyrrolidine-2-carboxamide]
AsPC-1 cells; Homo sapiens, ASPC1, 144 h
  IC50: < 10 nM
KRAS (G12D)
  DC50: < 10 nM

## CO[C@@H](C)COc1nc(N2CC3CCC(C2)N3)c2cc(C3CC3)c(-c3c(C)c(F)cc4[nH]ncc34)c(OCc3ccc(-c4cn([C@H](C(=O)N5C[C@H](O)C[C@H]5C(=O)N[C@@H](CO)c5ccc(-c6scnc6C)cc5)C(C)C)nn4)cc3)c2n1 (single isomer, unassigned) [Example 12A]
AsPC-1 cells; Homo sapiens, ASPC1, 144 h
  IC50: 10 to 100 nM
KRAS (G12D)
  DC50: 10 to 100 nM

## CCn1nccc1-c1ccc([C@H](CO)NC(=O)[C@@H]2C[C@@H](O)CN2C(=O)[C@H](C(C)C)n2cc(-c3ccc(COc4c(-c5c(C)c(F)cc6[nH]ncc56)c(C5CC5)cc5c(N6C[C@@H]7C[C@H]6CN7)nc(N6CCC(OC)C6)nc45)cc3)nn2)cc1 (stereo partly drawn) [Example 112, (2S,4R)-1-((2S)-2-(4-(4-(((4-((1S,4S)-2,5-diazabicyclo[2.2.1]heptan-2-yl)-6-cyclopropyl-7-(6-fluoro-5-methyl-1H-indazol-4-yl)-2-(3-methoxypyrrolidin-1-yl)quinazolin-8-yl)oxy)methyl)phenyl)-1H-1,2,3-triazol-1-yl)-3-methylbutanoyl)-N—((R)-1-(4-(1-ethyl-1H-pyrazol-5-yl)phenyl)-2-hydroxyethyl)-4-hydroxypyrrolidine-2-carboxamide]
AsPC-1 cells; Homo sapiens, ASPC1, 144 h
  IC50: < 10 nM
KRAS (G12D)
  DC50: < 10 nM

## Cc1ncsc1-c1ccc([C@@H](NC(=O)[C@@H]2C[C@@H](O)CN2C(=O)[C@H](C(C)C)n2cc(-c3ccc(COc4c(-c5c(C)c(F)cc6[nH]ncc56)c(C5CC5)cc5c(N6C[C@@H]7C[C@H]6CN7)nc(OC6CCOCC6)nc45)cc3)nn2)[C@@H](O)C2CC2)cc1 [Example 138, (2S,4R)-1-((2S)-2-(4-(4-(((4-((1S,4S)-2,5-diazabicyclo[2.2.1]heptan-2-yl)-6-cyclopropyl-7-(6-fluoro-5-methyl-1H-indazol-4-yl)-2-((tetrahydro-2H-pyran-4-yl)oxy)quinazolin-8-yl)oxy)methyl)phenyl)-1H-1,2,3-triazol-1-yl)-3-methylbutanoyl)-N-((1R,2S)-2-cyclopropyl-2-hydroxy-1-(4-(4-methylthiazol-5-yl)phenyl)ethyl)-4-hydroxypyrrolidine-2-carboxamide]
AsPC-1 cells; Homo sapiens, ASPC1, 144 h
  IC50: < 10 nM
KRAS (G12D)
  DC50: < 10 nM

## CCn1nccc1-c1ccc([C@@H](NC(=O)[C@@H]2C[C@@H](O)CN2C(=O)[C@H](C(C)C)n2cc(-c3ccc(COc4c(-c5c(C)c(F)cc6[nH]ncc56)c(C5CC5)cc5c(N6C[C@@H]7C[C@H]6CN7)nc(OC6CC7(CCOC7)C6)nc45)cc3)nn2)[C@H](C)O)cc1 (stereo partly drawn) [Example 114, (2S,4R)-1-((2S)-2-(4-(4-(((2-((6-oxaspiro[3.4]octan-2-yl)oxy)-4-((1S,4S)-2,5-diazabicyclo[2.2.1]heptan-2-yl)-6-cyclopropyl-7-(6-fluoro-5-methyl-1H-indazol-4-yl)quinazolin-8-yl)oxy)methyl)phenyl)-1H-1,2,3-triazol-1-yl)-3-methylbutanoyl)-N-((1R,2S)-1-(4-(1-ethyl-1H-pyrazol-5-yl)phenyl)-2-hydroxypropyl)-4-hydroxypyrrolidine-2-carboxamide]
AsPC-1 cells; Homo sapiens, ASPC1, 144 h
  IC50: < 10 nM
KRAS (G12D)
  DC50: < 10 nM

## CCn1nccc1-c1ccc([C@H](CO)NC(=O)[C@@H]2C[C@@H](O)CN2C(=O)[C@H](C(C)C)n2cc(-c3ccc(COc4c(-c5c(C)c(F)cc6[nH]ncc56)c(C5CC5(F)F)cc5c(N6C[C@@H]7C[C@H]6CN7)nc(OC[C@H](C)OC)nc45)cc3)nn2)cc1 (stereo partly drawn) [Example 52, (2S,4R)-1-((2S)-2-(4-(4-(((4-((1S,4S)-2,5-diazabicyclo[2.2.1]heptan-2-yl)-6-(2,2-difluorocyclopropyl)-7-(6-fluoro-5-methyl-1H-indazol-4-yl)-2-((S)-2-methoxypropoxy)quinazolin-8-yl)oxy)methyl)phenyl)-1H-1,2,3-triazol-1-yl)-3-methylbutanoyl)-N—((R)-1-(4-(1-ethyl-1H-pyrazol-5-yl)phenyl)-2-hydroxyethyl)-4-hydroxypyrrolidine-2-carboxamide]
AsPC-1 cells; Homo sapiens, ASPC1, 144 h
  IC50: < 10 nM
KRAS (G12D)
  DC50: 10 to 100 nM

## CCn1nccc1-c1ccc([C@@H](NC(=O)[C@@H]2C[C@@H](O)CN2C(=O)[C@H](C(C)C)n2cc(-c3ccc(COc4c(-c5c(C)c(F)cc6[nH]ncc56)c(C5CC5)cc5c(N(C)[C@H]6CCNC6)nc(OC[C@H](C)OC)nc45)cc3)nn2)[C@H](C)O)c2c1CC2 [Example 164, (2S,4R)-1-((2S)-2-(4-(4-(((6-cyclopropyl-7-(6-fluoro-5-methyl-1H-indazol-4-yl)-2-((S)-2-methoxypropoxy)-4-(methyl((S)-pyrrolidin-3-yl)amino)quinazolin-8-yl)oxy)methyl)phenyl)-1H-1,2,3-triazol-1-yl)-3-methylbutanoyl)-N-((1R,2S)-1-(5-(1-ethyl-1H-pyrazol-5-yl)bicyclo[4.2.0]octa-1(6),2,4-trien-2-yl)-2-hydroxypropyl)-4-hydroxypyrrolidine-2-carboxamide]
AsPC-1 cells
  IC50: < 10 nM
KRAS (G12D)
  DC50: < 10 nM

## CCn1nccc1-c1ccc([C@H](CO)NC(=O)[C@@H]2C[C@@H](O)CN2C(=O)[C@H](C(C)C)n2cc(-c3ccc(COc4c(-c5c(C)c(F)cc6[nH]ncc56)c(C5CC5)cc5c(N6C[C@@H]7C[C@H]6CN7)nc(OC6CC7(CCOCC7)C6)nc45)cc3)nn2)cc1 [Example 105, (2S,4R)-1-((2S)-2-(4-(4-(((2-((7-oxaspiro[3.5]nonan-2-yl)oxy)-4-((1S,4S)-2,5-diazabicyclo[2.2.1]heptan-2-yl)-6-cyclopropyl-7-(6-fluoro-5-methyl-1H-indazol-4-yl)quinazolin-8-yl)oxy)methyl)phenyl)-1H-1,2,3-triazol-1-yl)-3-methylbutanoyl)-N—((R)-1-(4-(1-ethyl-1H-pyrazol-5-yl)phenyl)-2-hydroxyethyl)-4-hydroxypyrrolidine-2-carboxamide]
AsPC-1 cells; Homo sapiens, ASPC1, 144 h
  IC50: < 10 nM
KRAS (G12D)
  DC50: < 10 nM
